Tests used:
[1] = Evaluation of solubility of ionic liquids in a variety of solvents (visual); format: physicochemical; settings: 50:50 by weight, room temperature
Description: The solubility of ionic liquids in a variety of solvents was evaluated at room temperature. Specifically, Ionic Liquids 1 to 3 were placed in a glass tube with respective solvents and mixed by stirring with a vortex mixer for from 1 to 2 minutes. The ratio of Ionic Liquids 1 to 3 to the corresponding solvents was 50:50 by weight. The solubility and transparency of the obtained liquids (liquid samples) were visually observed and evaluated according to the following criteria.
∘: Ionic liquid is dissolved uniformly and the clarity of the liquid sample is high
Δ: Ionic liquid is uniformly dissolved, but liquid sample is cloudy
×: Ionic liquid and solvent are separated, and the ionic liquid is not dissolved in the solvent. The same evaluation was performed for intermediate 2 ([EDMPC][Cl]) as a comparison.

[2] = tested on: stratum corneum; test: Influence on stratum corneum of skin (FTIR); parameters: species or system pig; settings: for Absorbance; CH2 asymmetric / Absorbance; CH2 symmetric / shift (cm^−1), CH2 asymmetric / shift (cm^−1), CH2 symmetric / shift (intensity), CH2 asymmetric / shift (intensity), CH2 symmetric: stratum corneum lipid; for Absorbance; CH2 asymmetric / Absorbance; CH2 symmetric / Absorbance; C═O amide-II / Absorbance; NH—C═O amide-I: FTIR, 30 minutes immersion; for shift (cm^−1), CH2 asymmetric / shift (cm^−1), CH2 symmetric / shift (intensity), CH2 asymmetric / shift (intensity), CH2 symmetric / shift (cm^−1), C═O amide-II / shift (cm^−1), NH—C═O amide-I / shift (intensity), C═O amide-II / shift (intensity), NH—C═O amide-I: versus untreated control; for Absorbance; C═O amide-II / Absorbance; NH—C═O amide-I / shift (cm^−1), C═O amide-II / shift (cm^−1), NH—C═O amide-I / shift (intensity), C═O amide-II / shift (intensity), NH—C═O amide-I: stratum corneum protein
Description: Frozen skin of a pig (YMPC, Hoshino Test Animal Breeding Co., Ltd.) was returned to room temperature, dried skin was warmed at 60° C. for from 60 to 120 seconds, and the epidermal layer was peeled from the skin. […] The isolated stratum corneum was washed with water and dried for an additional 24 hours. Sections of stratum corneum were immersed in test samples (IPM, Ionic Liquids 1, 2, 4, tween-80, DGME or PBS) in glass tubes for 30 minutes at room temperature. Stratum corneum sheets were washed with 20% ethanol and dried for 1 hour. The stratum corneum sheets were analyzed by Fourier transform infrared spectroscopy (FTIR) spectroscopy. Untreated stratum corneum was used as a control.

Compound | Solubility and transparency in Dimethyl sulfoxide ([1]; solvent Dimethyl sulfoxide) | Solubility and transparency in Ethanol ([1]; solvent Ethanol) | Solubility and transparency in Isopropyl alcohol ([1]; solvent Isopropyl alcohol) | Solubility and transparency in Isopropyl myristate ([1]; solvent Isopropyl myristate) | Absorbance; CH2 asymmetric [2] | Absorbance; CH2 symmetric [2] | shift (cm^−1), CH2 asymmetric [2] | shift (cm^−1), CH2 symmetric [2] | shift (intensity), CH2 asymmetric [2] | shift (intensity), CH2 symmetric [2] | Absorbance; C═O amide-II [2] | Absorbance; NH—C═O amide-I [2] | shift (cm^−1), C═O amide-II [2] | shift (cm^−1), NH—C═O amide-I [2] | shift (intensity), C═O amide-II [2] | shift (intensity), NH—C═O amide-I [2]
CCCCCCCCCCCCCC(=O)OC[C@H](COP(=O)(OCC)OCC[N+](C)(C)C)OC(=O)CCCCCCCCCCCCC (stereo partly shown) [Intermediate 2, EDMPC chloride] | ◯ | ◯ | ◯ | ◯ |  |  |  |  |  |  |  |  |  |  |  | 
tween-80 |  |  |  |  | 2920 cm⁻¹ | 2853 cm⁻¹ | 2 cm⁻¹ | 2 cm⁻¹ | 2.80 | 1.30 | 1648 cm⁻¹ | 1542 cm⁻¹ | 1 cm⁻¹ | 5 cm⁻¹ | 19.01 | 16.14
CCCCCCCCCCCCCC(=O)OC(C)C [IPM, isopropyl myristate] |  |  |  |  | 2920 cm⁻¹ | 2853 cm⁻¹ | 2 cm⁻¹ | 2 cm⁻¹ | 1.72 | 1.08 | 1648 cm⁻¹ | 1539 cm⁻¹ | 1 cm⁻¹ | 2 cm⁻¹ | 13.95 | 10.59
CCOCCOCCO [DGME, diethylene glycol monoethyl ether] |  |  |  |  | 2918 cm⁻¹ | 2853 cm⁻¹ | 0 cm⁻¹ | 2 cm⁻¹ | 2.37 | 1.25 | 1648 cm⁻¹ | 1541 cm⁻¹ | 1 cm⁻¹ | 4 cm⁻¹ | 18.00 | 14.31

— patent US20230140926A1, “IONIC LIQUID, SOLVENT, PREPARATION, AND TRANSDERMALLY ABSORBABLE AGENT” (Kyushu University, National University Corporation, priority 2020, published 2023)
